Test systems include MDAMB157; HCC1428; HCC1500.
What all share (test): GRmax, 72 h; higher = less effect;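 note: breast cell lines in 384-well plates, nine doses across a 10^4 range, Dye Drop imaging of viable cells vs DMSO and time-zero plates, GR 0 means no net growth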

`CCOc1cc2ncc(C#N)c(Nc3ccc(OCc4ccccn4)c(Cl)c3)c2cc1NC(=O)/C=C/CN(C)C` [Neratinib/HKI272] (max 3.162 µM): the “GRmax, 72 h” value is 0.117 GR with MDAMB157, -0.0412 GR in the assay on HCC1428 and -0.287 GR with HCC1500.
For `Cc1cc(C(C)Nc2ccccc2)c2nc(N3CCOCC3)cc(=O)n2c1` (configuration not stated) [TGX221] (max 10 µM), the “GRmax, 72 h” value amounted to 0.824 GR in the assay with MDAMB157, 0.769 GR in the assay on HCC1428 and 0.503 GR with HCC1500.
For `Cc1c(N)nc([C@H](CC(N)=O)NC[C@H](N)C(N)=O)nc1C(=O)N[C@H](C(=O)N[C@H](C)[C@@H](O)[C@H](C)C(=O)N[C@H](C(=O)NCCc1nc(-c2nc(C(=O)NCCC[S+](C)C)cs2)cs1)[C@@H](C)O)[C@@H](OC1OC(CO)C(O)C(O)C1OC1OC(CO)C(O)C(OC(N)=O)C1O)c1cnc[nH]1` (some centres not stated) [Bleomycin] (max 10 µM), the “GRmax, 72 h” value with MDAMB157 (main component drawn) is -0.281 GR; in the assay on HCC1428 (main component drawn), 0.217 GR; in the assay with HCC1500 (main component drawn), 0.174 GR.
In the case of `COc1cc2nccc(Oc3ccc(NC(=O)C4(C(=O)Nc5ccc(F)cc5)CC4)cc3)c2cc1OC` [Cabozantinib] (max 10 µM), the “GRmax, 72 h” value in the assay with MDAMB157 is 0.149 GR; in the assay on HCC1428 it was 0.631 GR; in the assay on HCC1500 it was 0.184 GR.
In the case of `CN1CCN(CCOc2cc(OC3CCOCC3)c3c(Nc4c(Cl)ccc5c4OCO5)ncnc3c2)CC1` [Saracatinib/AZD0530] (max 10 µM), the figures for the “GRmax, 72 h” value with MDAMB157, in the assay on HCC1428 and with HCC1500 were 0.355 GR, 0.669 GR and -0.197 GR, respectively.
As to `O=C(CCCCCCC(=O)Nc1ccccc1)NO` [Vorinostat] (max 10 µM), the “GRmax, 72 h” value was -0.413 GR in the assay with MDAMB157, -0.479 GR in the assay with HCC1428 and -0.596 GR in the assay on HCC1500.
The corresponding values for `CO[C@H]1C[C@@H]2CC[C@@H](C)[C@@](O)(O2)C(=O)C(=O)N2CCCC[C@H]2C(=O)O[C@H]([C@H](C)C[C@@H]2CC[C@@H](OCCO)[C@H](OC)C2)CC(=O)[C@H](C)/C=C(\C)[C@@H](O)[C@@H](OC)C(=O)[C@H](C)C[C@H](C)/C=C/C=C/C=C/1C` [Everolimus] (max 10 µM) are 0.481 GR, 0.346 GR and -0.31 GR.
As for `CCNC(=O)c1noc(-c2cc(C(C)C)c(O)cc2O)c1-c1ccc(CN2CCOCC2)cc1` [Luminespib/NVP-AUY922] (max 1 µM), the “GRmax, 72 h” value in the assay with MDAMB157 is -0.049 GR; in the assay on HCC1428 it was -0.0043 GR; in the assay with HCC1500, -0.224 GR.
Consider `CCc1cncnc1N1CCN(Cc2nc3ccc(C(F)(F)F)cc3[nH]2)CC1` (max 10 µM), for which the “GRmax, 72 h” value in the assay on MDAMB157 was 0.11 GR; with HCC1428 it was 0.864 GR; in the assay with HCC1500, 0.0495 GR.
Take `CC(=O)Nc1cccc(-n2c(=O)n(C3CC3)c(=O)c3c(Nc4ccc(I)cc4F)n(C)c(=O)c(C)c32)c1` (max 1 µM): the “GRmax, 72 h” value in the assay with MDAMB157 turned out to be 0.406 GR; with HCC1428, 0.815 GR; in the assay with HCC1500, 0.344 GR.
The corresponding values for `CC(=O)c1c(C)c2cnc(Nc3ccc(N4CCNCC4)cn3)nc2n(C2CCCC2)c1=O` (max 3.162 µM) are 0.975 GR, 0.254 GR and 0.574 GR.
For the compound `COc1cccc2c1C(=O)c1c(O)c3c(c(O)c1C2=O)C[C@@](O)(C(=O)CO)C[C@@H]3O[C@H]1C[C@H](N)[C@H](O)[C@H](C)O1` [Doxorubicin] (max 3.162 µM), the results for the “GRmax, 72 h” value in the assay on MDAMB157, in the assay with HCC1428 and in the assay on HCC1500 were -0.777 GR, -0.74 GR and -0.713 GR, respectively.
In the same order, the values of `COc1cc([C@@H]2c3cc4c(cc3[C@@H](O[C@@H]3O[C@@H]5CO[C@@H](C)O[C@H]5[C@H](O)[C@H]3O)[C@H]3COC(=O)[C@H]23)OCO4)cc(OC)c1O` [Etoposide] (max 10 µM) are -0.434 GR, -0.032 GR and -0.0766 GR.
For the compound `CC(=O)O[C@H]1C(=O)[C@@]2(C)[C@H]([C@H](OC(=O)c3ccccc3)[C@]3(O)C[C@H](OC(=O)[C@H](O)[C@@H](NC(=O)c4ccccc4)c4ccccc4)C(C)=C1C3(C)C)[C@]1(OC(C)=O)CO[C@@H]1C[C@@H]2O` [Paclitaxel] (max 1 µM), the “GRmax, 72 h” value with MDAMB157 was -0.67 GR; in the assay with HCC1428 it was 0.0645 GR; in the assay on HCC1500 it was -0.0589 GR.
In the same order, the values of `CC[C@@]1(O)C(=O)OCc2c1cc1n(c2=O)Cc2cc3c(CN(C)C)c(O)ccc3nc2-1` [Topotecan] (max 10 µM) are -0.833 GR, -0.376 GR and -0.801 GR.
For `CCN1CCN(Cc2ccc(Nc3ncc(F)c(-c4cc(F)c5nc(C)n(C(C)C)c5c4)n3)nc2)CC1` (max 10 µM), the “GRmax, 72 h” value was -0.604 GR in the assay on MDAMB157, 0.0492 GR with HCC1428 and 0.22 GR in the assay with HCC1500.
Consider `Cc1cc(Nc2ncc(Cl)c(Nc3ccccc3S(=O)(=O)C(C)C)n2)c(OC(C)C)cc1C1CCNCC1` [Ceritinib/LDK378] (max 10 µM), for which the figures for the “GRmax, 72 h” value in the assay with MDAMB157, in the assay with HCC1428 and in the assay on HCC1500 were -0.926 GR, -0.867 GR and -0.954 GR, respectively.
Turning to `COc1cc2c(Oc3ccc4[nH]c(C)cc4c3F)ncnc2cc1OCCCN1CCCC1` [Cediranib/AZD2171] (max 10 µM), the results for the “GRmax, 72 h” value in the assay with MDAMB157, with HCC1428 and in the assay with HCC1500 were -0.585 GR, -0.55 GR and -0.808 GR, respectively.
In the case of `NC(=O)Nc1cc(-c2cccc(F)c2)sc1C(=O)N[C@H]1CCCNC1` [AZD7762] (max 10 µM), the “GRmax, 72 h” value is -0.786 GR with MDAMB157, -0.215 GR in the assay with HCC1428 and -0.256 GR in the assay with HCC1500.
In the same order, the values of `CC(C)NC[C@@H](C(=O)N1CCN(c2ncnc3c2[C@H](C)C[C@H]3O)CC1)c1ccc(Cl)cc1` [Ipatasertib/GDC0068] (max 10 µM) are 0.596 GR, 0.991 GR and 1.08 GR.
In the case of `CCc1cnn2c(NCc3ccc[n+]([O-])c3)cc(N3CCCC[C@H]3CCO)nc12` (max 1 µM), the entries for the “GRmax, 72 h” value with MDAMB157, in the assay on HCC1428 and with HCC1500 were -0.911 GR, -0.672 GR and -0.572 GR, respectively.
In the same order, the values of `Nc1ccc(-c2ccc3ncc4ccc(=O)n(-c5cccc(C(F)(F)F)c5)c4c3c2)cn1` [Torin2] (max 1 µM) are -0.216 GR, -0.0145 GR and -0.497 GR.
As to `CC[C@@H]1C(=O)N(C)c2cnc(Nc3ccc(C(=O)N[C@H]4CC[C@H](N5CCN(CC6CC6)CC5)CC4)cc3OC)nc2N1C(C)C` [Volasertib/BI6727] (max 1 µM), the “GRmax, 72 h” value was -0.664 GR in the assay with MDAMB157, -0.0388 GR in the assay with HCC1428 and 0.286 GR in the assay on HCC1500.
The corresponding values for `O=C1NC(=O)[C@@H](c2cn3c4c(cccc24)CCC3)[C@@H]1c1c[nH]c2ccccc12` [Tivantinib/ARQ197] (max 10 µM) are -0.482 GR, 0.0341 GR and -0.33 GR.
In the case of `Cc1nc(Nc2ncc(C(=O)Nc3c(C)cccc3Cl)s2)cc(N2CCN(CCO)CC2)n1` [Dasatinib] (max 10 µM), the “GRmax, 72 h” value in the assay on MDAMB157 is 0.0683 GR; in the assay with HCC1428, 0.578 GR; with HCC1500, -0.159 GR.
For `Cc1nc(-c2cn3c(n2)-c2ccc(-c4cnn(C(C)(C)C(N)=O)c4)cc2OCC3)n(C(C)C)n1` [Taselisib/GDC0032] (max 10 µM), the “GRmax, 72 h” value was 0.211 GR with MDAMB157, 0.173 GR in the assay with HCC1428 and -0.233 GR in the assay with HCC1500.
In the case of `Cc1nc(NC(=O)N2CCC[C@H]2C(N)=O)sc1-c1ccnc(C(C)(C)C(F)(F)F)c1` [Alpelisib/BYL719] (max 10 µM), the “GRmax, 72 h” value turned out to be 0.492 GR in the assay on MDAMB157, 0.853 GR in the assay with HCC1428 and 0.581 GR in the assay on HCC1500.
`CN(C)CC[C@H](CSc1ccccc1)Nc1ccc(S(=O)(=O)NC(=O)c2ccc(N3CCN(Cc4ccccc4-c4ccc(Cl)cc4)CC3)cc2)cc1[N+](=O)[O-]` [ABT-737] (max 10 µM): the “GRmax, 72 h” value in the assay on MDAMB157 was 0.201 GR; with HCC1428 it was 0.243 GR; with HCC1500, -0.736 GR.
Regarding `CS(=O)(=O)N1CCN(Cc2cc3nc(-c4cccc5[nH]ncc45)nc(N4CCOCC4)c3s2)CC1` [Pictilisib/GDC0941] (max 10 µM), the “GRmax, 72 h” value in the assay on MDAMB157 was 0.187 GR; in the assay with HCC1428 it was 0.192 GR; with HCC1500, -0.132 GR.

These data come from the supplement of paper PMC9663587.
